Nine compounds from publication PMC6600388 (2019) can be followed below.

This test concerns human red blood cells.
The mark [1] stands for this setting: read-out: RBC Lysis IC50, pH 7.4, pH 7.4.
Where [2] appears, read: read-out: RBC Lysis IC50, pH 5.5, pH 5.5.

Like-named read-outs stand apart in the source and are kept apart here. Residues, ends and D or L forms follow the SMILES beside them.

What is called IC50 is the concentration that inhibits the measured activity by half. `CC[C@H](C)[C@H](NC(=O)[C@H](CCC(=O)O)NC(=O)CNC(=O)[C@H](Cc1ccccc1)NC(=O)[C@H](CC(C)C)NC(=O)CNC(=O)[C@@H](N)CS)C(=O)N[C@@H](CCC(=O)O)C(=O)N[C@@H](CCC(=O)O)C(=O)N[C@@H](Cc1ccccc1)C(=O)N[C@H](C(=O)N[C@@H](CCC(=O)O)C(=O)N[C@@H](CCC(=O)O)C(=O)NCC(=O)N[C@@H](CC(C)C)C(=O)N[C@@H](CCC(=O)O)C(=O)N[C@@H](CC(N)=O)C(=O)N[C@@H](CC(C)C)C(=O)N[C@H](C(=O)N[C@@H](CC(=O)O)C(=O)N[C@@H](Cc1c[nH]c2ccccc12)C(=O)N[C@@H](Cc1c[nH]c2ccccc12)C(=O)N[C@@H](Cc1ccc(O)cc1)C(=O)NCC(=O)N[C@@H](Cc1ccc(O)cc1)C(=O)NCC(=O)N[C@@H](CCCNC(=N)N)C(=O)N[C@@H](CCCCN)C(=O)N[C@@H](CCCCN)C(=O)N[C@@H](CCCNC(=N)N)C(=O)N[C@@H](CCCNC(=N)N)C(=O)N[C@@H](CCC(N)=O)C(=O)N[C@@H](CCCNC(=N)N)C(=O)N[C@@H](CCCNC(=N)N)C(N)=O)[C@@H](C)CC)[C@@H](C)CC` [Peptide 65] (H-CGLFGEIEEFIEEGLENLIDWWYGYGRKKRRQRR-NH2) gave an IC50 (red cells of human, pH 5.5) of 3.15 µM and an IC50 (red cells of human, pH 7.4) greater than 20 µM.
The corresponding values for `CC[C@H](C)[C@H](NC(=O)[C@H](CCC(=O)O)NC(=O)CNC(=O)[C@H](Cc1ccccc1)NC(=O)[C@H](CC(C)C)NC(=O)CNC(=O)[C@@H](N)CS)C(=O)N[C@@H](CCC(=O)O)C(=O)N[C@@H](CCC(=O)O)C(=O)N[C@@H](Cc1ccccc1)C(=O)N[C@H](C(=O)N[C@@H](CCC(=O)O)C(=O)N[C@@H](CCC(=O)O)C(=O)NCC(=O)N[C@@H](Cc1c[nH]c2ccccc12)C(=O)N[C@@H](CCC(=O)O)C(=O)N[C@@H](CC(N)=O)C(=O)N[C@@H](Cc1ccccc1)C(=O)N[C@H](C(=O)N[C@@H](CC(=O)O)C(=O)N[C@@H](Cc1c[nH]c2ccccc12)C(=O)N[C@@H](Cc1c[nH]c2ccccc12)C(=O)N[C@@H](Cc1ccc(O)cc1)C(=O)NCC(=O)N[C@@H](Cc1ccc(O)cc1)C(=O)NCC(=O)N[C@@H](CCCNC(=N)N)C(=O)N[C@@H](CCCCN)C(=O)N[C@@H](CCCCN)C(=O)N[C@@H](CCCNC(=N)N)C(=O)N[C@@H](CCCNC(=N)N)C(=O)N[C@@H](CCC(N)=O)C(=O)N[C@@H](CCCNC(=N)N)C(=O)N[C@@H](CCCNC(=N)N)C(N)=O)[C@@H](C)CC)[C@@H](C)CC` [Peptide 66] (H-CGLFGEIEEFIEEGWENFIDWWYGYGRKKRRQRR-NH2) are 4.08 µM and greater than 20 µM.
As for `CC[C@H](C)[C@H](NC(=O)[C@H](CC(C)C)NC(=O)[C@H](CCC(=O)O)NC(=O)[C@H](CCC(=O)O)NC(=O)[C@@H](NC(=O)[C@H](CCC(=O)O)NC(=O)[C@H](CCC(=O)O)NC(=O)[C@H](Cc1ccccc1)NC(=O)[C@H](CC(C)C)NC(=O)CNC(=O)[C@@H](N)CS)[C@@H](C)CC)C(=O)N[C@@H](CCC(=O)O)C(=O)N[C@@H](CCC(=O)O)C(=O)NCC(=O)N[C@@H](CC(C)C)C(=O)N[C@@H](CCC(=O)O)C(=O)N[C@@H](CC(N)=O)C(=O)N[C@@H](CC(C)C)C(=O)N[C@H](C(=O)N[C@@H](CC(=O)O)C(=O)N[C@@H](Cc1c[nH]c2ccccc12)C(=O)N[C@@H](Cc1c[nH]c2ccccc12)C(=O)N[C@@H](Cc1ccc(O)cc1)C(=O)NCC(=O)N[C@@H](Cc1ccc(O)cc1)C(=O)NCC(=O)N[C@@H](CCCNC(=N)N)C(=O)N[C@@H](CCCCN)C(=O)N[C@@H](CCCCN)C(=O)N[C@@H](CCCNC(=N)N)C(=O)N[C@@H](CCCNC(=N)N)C(=O)N[C@@H](CCC(N)=O)C(=O)N[C@@H](CCCNC(=N)N)C(=O)N[C@@H](CCCNC(=N)N)C(N)=O)[C@@H](C)CC` [Peptide 68] (H-CGLFEEIEELIEEGLENLIDWWYGYGRKKRRQRR-NH2), the IC50 is, setting by setting: (red cells of human, pH 5.5) 4.11 µM; (red cells of human, pH 7.4) greater than 20 µM.
For `CC[C@H](C)[C@H](NC(=O)[C@H](CC(C)C)NC(=O)[C@H](CCC(=O)O)NC(=O)[C@H](CCC(=O)O)NC(=O)[C@@H](NC(=O)[C@H](CCC(=O)O)NC(=O)[C@H](CCC(=O)O)NC(=O)[C@H](Cc1ccccc1)NC(=O)[C@H](CC(C)C)NC(=O)CNC(=O)[C@@H](N)CS)[C@@H](C)CC)C(=O)N[C@@H](CCC(=O)O)C(=O)N[C@@H](CCC(=O)O)C(=O)NCC(=O)N[C@@H](CC(C)C)C(=O)N[C@@H](CCC(=O)O)C(=O)N[C@@H](CC(N)=O)C(=O)N[C@@H](CC(C)C)C(=O)N[C@H](C(=O)N[C@@H](CC(=O)O)C(=O)N[C@@H](Cc1c[nH]c2ccccc12)C(=O)N[C@@H](Cc1c[nH]c2ccccc12)C(=O)N[C@@H](Cc1ccc(O)cc1)C(=O)NCC(=O)N[C@@H](Cc1ccc(O)cc1)C(=O)NCC(=O)N[C@@H](Cc1c[nH]cn1)C(=O)N[C@@H](CCCCN)C(=O)N[C@@H](CCCCN)C(=O)N[C@@H](Cc1c[nH]cn1)C(=O)N[C@@H](Cc1c[nH]cn1)C(=O)N[C@@H](CCC(N)=O)C(=O)N[C@@H](Cc1c[nH]cn1)C(=O)N[C@@H](CCCNC(=N)N)C(N)=O)[C@@H](C)CC` [Peptide 69] (H-CGLFEEIEELIEEGLENLIDWWYGYGHKKHHQHR-NH2), the IC50 is, setting by setting: (red cells of human, pH 5.5) 8.73 µM; (red cells of human, pH 7.4) greater than 20 µM.
The corresponding values for `CC[C@H](C)[C@H](NC(=O)[C@H](CC(C)C)NC(=O)[C@H](CCC(=O)O)NC(=O)[C@H](CCC(=O)O)NC(=O)[C@@H](NC(=O)[C@H](CCC(=O)O)NC(=O)[C@H](CCC(=O)O)NC(=O)[C@H](Cc1ccccc1)NC(=O)[C@H](CC(C)C)NC(=O)CNC(=O)[C@@H](N)CS)[C@@H](C)CC)C(=O)N[C@@H](CCC(=O)O)C(=O)N[C@@H](CCC(=O)O)C(=O)NCC(=O)N[C@@H](CC(C)C)C(=O)N[C@@H](CCCCN)C(=O)N[C@@H](CC(N)=O)C(=O)N[C@@H](CC(C)C)C(=O)N[C@H](C(=O)N[C@@H](CC(=O)O)C(=O)N[C@@H](Cc1c[nH]c2ccccc12)C(=O)N[C@@H](Cc1c[nH]c2ccccc12)C(=O)N[C@@H](Cc1ccc(O)cc1)C(=O)NCC(=O)N[C@@H](Cc1ccc(O)cc1)C(=O)NCC(=O)N[C@@H](Cc1c[nH]cn1)C(=O)N[C@@H](CCCCN)C(=O)N[C@@H](CCCCN)C(=O)N[C@@H](Cc1c[nH]cn1)C(=O)N[C@@H](Cc1c[nH]cn1)C(=O)N[C@@H](CCC(N)=O)C(=O)N[C@@H](Cc1c[nH]cn1)C(=O)N[C@@H](CCCNC(=N)N)C(N)=O)[C@@H](C)CC` [Peptide 70] (H-CGLFEEIEELIEEGLKNLIDWWYGYGHKKHHQHR-NH2) are 2.28 µM and greater than 20 µM.
For the compound “CGLFEAIEGFIENGWEGMIDGWYG(Peg11)YGRKKRRQRR [Peptide 36e]”, under setting [1], the IC50 is greater than 100 µM.
As for “CGLFEAIEGFIENGWEGMIDGWYG(Peg 3)YGRKKRRQRR [Peptide 36c]”, the IC50 is, setting by setting: under setting [2], 1.92 µM; under setting [1], greater than 10 µM.
With “CGLFEAIEGFIENGWEGMIDGWYG(Peg 6)YGRKKRRQRR [Peptide 36d]”, the IC50 runs as follows: under setting [2], 1.22 µM; under setting [1], greater than 10 µM.
On to “CGLFEAIEGFIENGWEGMIDGWYG(Peg 27)YGRKKRRQRR [Peptide 36f]”, for which the IC50 is 28 µM under setting [2] and greater than 100 µM under setting [1].
